{"source": "patent US12091389B2", "about": "“Pyrazolylbenzene-1,3-diols for diseases associated with g protein-coupled receptor 18 and in combination with transient receptor potential vanilloid 1” (Temple University—Of The Commonwealth System of Higher …, priority 2020, dated 2024)", "target": "TRPV1 (Homo sapiens, UniProt Q8NER1)", "sequence (Q8NER1 whole entry)": "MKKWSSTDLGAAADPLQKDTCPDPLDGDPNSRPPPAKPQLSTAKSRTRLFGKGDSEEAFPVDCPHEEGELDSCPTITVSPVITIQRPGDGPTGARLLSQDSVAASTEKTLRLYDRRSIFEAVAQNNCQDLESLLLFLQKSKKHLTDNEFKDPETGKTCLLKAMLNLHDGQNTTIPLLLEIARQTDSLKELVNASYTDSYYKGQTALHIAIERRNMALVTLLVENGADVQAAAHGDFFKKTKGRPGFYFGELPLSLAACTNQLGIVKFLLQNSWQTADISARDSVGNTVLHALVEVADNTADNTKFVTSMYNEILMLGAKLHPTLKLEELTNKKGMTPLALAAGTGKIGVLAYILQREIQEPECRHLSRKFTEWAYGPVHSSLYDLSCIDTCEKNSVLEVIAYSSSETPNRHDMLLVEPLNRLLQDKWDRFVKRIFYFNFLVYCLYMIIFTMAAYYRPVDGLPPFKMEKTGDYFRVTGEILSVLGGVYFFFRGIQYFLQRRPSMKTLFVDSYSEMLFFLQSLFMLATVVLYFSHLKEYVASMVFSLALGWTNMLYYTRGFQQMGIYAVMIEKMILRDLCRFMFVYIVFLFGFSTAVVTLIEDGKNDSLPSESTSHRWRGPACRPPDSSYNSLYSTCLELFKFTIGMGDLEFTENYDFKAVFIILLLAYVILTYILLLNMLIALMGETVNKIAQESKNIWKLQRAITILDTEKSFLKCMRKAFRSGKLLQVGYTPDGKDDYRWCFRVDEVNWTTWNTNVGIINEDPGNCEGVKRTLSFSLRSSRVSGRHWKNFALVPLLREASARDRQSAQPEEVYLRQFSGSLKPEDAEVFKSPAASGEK", "assay": "Calcium imaging (Fura-2 AM) in TRPV1-expressing HEK293 cells", "type": "cell-based", "conditions": "compound alone, 5 μM", "data": [{"smiles": "CCCCC/C=C\\C/C=C\\C/C=C\\C/C=C\\CCCC(=O)NCCO", "note": "[Anandamide]", "values": [{"measurement": "Effect on intracellular calcium (Ca^2+) in TPRV1-expressing cells", "value": "increases intracellular calcium"}]}]}
